Experiment in all cases: growth of human tumour cells (NCI), 48 h
The test system of test [1] is SN12C renal.
Test [2] deals with UO-31 renal.
Test [3] has as its system SF-539 CNS.
For test [4], the system named is UACC-257 melanoma.
Test [5] concerns EKVX NSCLC.
Test [6] deals with KM12 colon.
Test [7] concerns SNB-75 CNS.
The test system of test [8] is MDA-MB-231 breast.
Test [9] concerns HOP-92 NSCLC.
In test [10] the test system is HOP-62 NSCLC.

SMILES strings stand for the structures.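 Growth conditions: 96-well plates. Treatment: test compound, 48 hours, 5 concentrations. Analysis: linear interpolation between bracketing concentrations; unreached endpoints set to highest concentration. GI50 marks 50% less growth. The concentration for full growth arrest is given as TGI.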 A value given as a limit tells only on which side of the number the result lay.

`CN(c1ccc(NC(=O)NCCN2CCOCC2)cc1)c1ccnc(Nc2ccc(CS(C)(=O)=O)cc2)n1`: the GI50 in test [1] was more than 25 µM; in test [2], more than 25 µM; in [3], more than 21.4 µM; in [4] it was more than 25 µM; in test [5], more than 25 µM; in [6] it was 12.2 µM. Besides, the GI50 is more than 25 µM in test [7], more than 25 µM in [8], 19.2 µM in [9] and more than 25 µM in test [10]. Moreover, the TGI in [1], in test [2], in test [3], in test [4], in test [5] and in test [6] was more than 25 µM in each case. For the same compound, the TGI in test [7], in test [8], in test [9] and in [10] was more than 25 µM throughout.

For the compound `O=[N+]([O-])c1ccc(/C=C\c2ccc3c(c2)OCO3)c([N+](=O)[O-])c1`, the TGI in test [1] was determined as 34 µM; in test [2] it was 54.5 µM; in test [3], 39.1 µM; in test [4], 32 µM; in [5], 28.1 µM; in test [6], 54 µM. Moreover, the TGI in test [7] was 31.5 µM; in [8], 33.2 µM; in test [9], 53.5 µM; in test [10] it was 69 µM.

Take `C=C(C)[C@@H]1CC[C@]2(C(=O)n3ccnc3)CC[C@]3(C)[C@H](CC[C@@H]4[C@@]5(C)CCCNC(C)(C)[C@@H]5CC[C@]43C)[C@@H]12`: the GI50 in test [1] is 1.7 µM; in test [2], 1.38 µM; in test [3], 1.58 µM; in [4] it was 2.02 µM; in [5], 1.74 µM; in [6] it was 1.68 µM. The GI50 in test [7] is 2.48 µM; in [8], 1.78 µM; in test [9], 1.49 µM; in test [10], 1.75 µM. Also, the TGI worked out at 3.24 µM in test [1]; 2.72 µM in test [2]; 3.03 µM in test [3]; 4.09 µM in test [4]; 4.1 µM in test [5]; 3.11 µM in test [6]. Also, the TGI stood at 10.1 µM in [7], 3.3 µM in test [8], 2.96 µM in test [9] and 3.31 µM in test [10].

Turning to `Oc1ccc(-c2[nH]c3ccccc3c2-c2nc3ccccc3o2)cc1`, the GI50 in [1] is 4.88 µM; in test [2] it was 0.893 µM; in [3], 7.56 µM; in test [4], 4.59 µM; in test [5], 4.76 µM; in test [6], 2.05 µM. Besides, the GI50 in [7] was 1.44 µM; in test [8], 1.47 µM; in test [9], 2.73 µM; in [10], 5.01 µM. Moreover, the TGI in [1] is 18.5 µM; in test [2], 13.9 µM; in [3], 22.1 µM; in [4] it was 18.3 µM; in test [5] it was 21.9 µM; in test [6], 6.95 µM. Besides, the TGI in test [7] came out at 10.4 µM; in test [8], 5.64 µM; in test [9], 15.9 µM; in [10], 18.2 µM.

As to `Cc1ccccc1CNc1c2ccccc2nc2ccccc12`, the GI50 was 2.47 µM in test [1]; 1.33 µM in test [2]; 1.84 µM in test [3]; 2.2 µM in test [4]; 2.43 µM in test [5]; 2.95 µM in test [6]. Moreover, the GI50 in test [7] is 1.7 µM; in test [8] it was 1.7 µM; in [9], 0.834 µM; in test [10], 3.02 µM. For the same compound, the TGI in test [1] came to 8.97 µM; in test [2], 3.91 µM; in [3], 4 µM; in [4], 5.23 µM; in test [5], 8.02 µM; in test [6], 10.1 µM. Moreover, the TGI worked out at 8.36 µM in test [7], 4.19 µM in [8], 4.54 µM in test [9] and 14.6 µM in [10].

Consider `CC(C)C/C(=N\NC(=O)c1ccncc1)c1cc(Cl)ccc1O`, for which the GI50 is 0.619 µM in [1]; 0.211 µM in [2]; 0.363 µM in [3]; 0.41 µM in test [4]; 0.312 µM in [5]; 0.389 µM in [6]. Further, the GI50 is 11.6 µM in [7], 0.622 µM in test [8], 0.306 µM in test [9] and 0.465 µM in test [10]. Also, the TGI in test [1] is more than 52.5 µM; in [2], 18.6 µM; in test [3], 5.58 µM; in test [4] it was 6.62 µM; in [5], 25.3 µM; in test [6], 57.4 µM. The TGI in test [7] is more than 100 µM; in test [8] it was more than 46 µM; in test [9], 28.6 µM; in [10], 64.8 µM.

`Cc1cn2c(/C=C3/C(=O)Nc4ccc(C(=O)O)cc43)c(C)nc2s1`: the GI50 in test [1], in test [2], in test [3], in test [4], in test [5] and in [6] was more than 100 µM in each case. Further, the GI50 in [7], in test [8], in [9] and in test [10] was more than 100 µM each time. In addition, the TGI in test [1], in [2], in [3], in test [4], in [5] and in test [6] was more than 100 µM each time. Further, the TGI in test [7], in test [8], in [9] and in test [10] was more than 100 µM throughout.

`COc1cc(OC)c(/C=C/C(=O)c2c(N)cc(OC)cc2OC)c(OC)c1`: the GI50 in test [1] was 0.719 µM; in [2] it was 1.36 µM; in [3] it was 0.365 µM; in test [5], 2.25 µM; in test [6], 0.303 µM; in test [7] it was 0.338 µM. For the same compound, the GI50 in [8] was 1.35 µM; in test [9], 17.6 µM; in test [10] it was 0.724 µM. Moreover, the TGI in test [1] was more than 100 µM; in test [2], more than 100 µM; in [3], more than 25.2 µM; in [5], more than 100 µM; in [6], 47.9 µM; in [8], more than 100 µM. Also, the TGI in test [9] is more than 94.8 µM; in test [10], more than 100 µM.

These data come from PubChem BioAssay (NCI).
